Data taken from the NIST ThermoML archive (doi:10.1016/j.jct.2017.08.004).

Assay: molar heat capacity at constant pressure
Conditions: 101.33 kPa, Crystal

OC[C@@H](O)[C@@H](O)[C@H](O)[C@H](O)CO [D-mannitol]
molar heat capacity at constant pressure [J/K/mol]
Conditions	Small sample (50 mg) DSC	relaxation calorimetry
1 K	–	0.001199
1.923 K	–	0.006707
2 K	–	0.007583
2.139 K	–	0.009192
2.373 K	–	0.01256
2.634 K	–	0.01689
2.928 K	–	0.02301
3 K	–	0.02469
3.249 K	–	0.03152
3.602 K	–	0.04303
3.997 K	–	0.05809
4 K	–	0.05872
4.435 K	–	0.07904
4.92 K	–	0.1115
5 K	–	0.1167
5.459 K	–	0.1535
6 K	–	0.2067
6.057 K	–	0.2121
6.719 K	–	0.2951
7 K	–	0.3376
7.454 K	–	0.4159
8 K	–	0.5187
8.269 K	–	0.5829
9 K	–	0.7614
9.171 K	–	0.8041
10 K	–	1.071
10.2 K	–	1.131
11.29 K	–	1.565
12.52 K	–	2.163
13.89 K	–	2.945
15 K	–	3.67
15.42 K	–	3.976
17.11 K	–	5.278
18.99 K	–	6.927
20 K	–	7.832
21.08 K	–	8.9
23.4 K	–	11.29
25 K	–	13.01
25.98 K	–	14.06
28.84 K	–	17.28
30 K	–	18.66
32.02 K	–	20.91
35 K	–	24.4
35.55 K	–	25.01
39.45 K	–	29.53
40 K	–	30.07
43.79 K	–	34.41
45 K	–	35.64
48.59 K	–	39.53
50 K	–	41.11
53.92 K	–	45.29
55 K	–	46.48
59.84 K	–	51.45
60 K	–	51.67
65 K	–	56.63
66.4 K	–	58.03
70 K	–	61.48
73.71 K	–	64.84
75 K	–	66.19
80 K	–	70.77
81.8 K	–	72.99
85 K	–	75.22
90 K	–	79.54
90.8 K	–	80.09
95 K	–	83.75
100 K	–	87.87
100.74 K	–	87.67
110 K	–	95.83
110.88 K	–	96.15
120 K	–	103.5
120.83 K	–	104.57
130 K	–	110.93
130.91 K	–	112.04
140 K	–	118.19
140.97 K	–	119.24
150 K	–	125.32
151.12 K	–	126.15
160 K	–	132.36
161.2 K	–	133.18
170 K	–	139.33
171.28 K	–	140.05
180 K	–	146.27
181.37 K	–	147.35
188.15 K	143.51	–
189.15 K	144.52	–
190 K	–	153.2
190.15 K	145.73	–
191.15 K	146.73	–
191.44 K	–	154.23
192.15 K	147.51	–
193.15 K	148.54	–
194.15 K	149.99	–
195.15 K	151.06	–
196.15 K	152.24	–
197.15 K	153.48	–
198.15 K	154.54	–
199.15 K	155.53	–
200 K	–	160.12
200.15 K	156.46	–
201.15 K	157.4	–
201.56 K	–	160.73
202.15 K	158.14	–
203.15 K	158.99	–
204.15 K	159.96	–
205.15 K	160.76	–
206.15 K	161.64	–
207.15 K	162.47	–
208.15 K	163.24	–
209.15 K	163.78	–
210 K	–	167.07
210.15 K	164.68	–
211.15 K	165.46	–
211.67 K	–	167.61
212.15 K	166.24	–
213.15 K	167.09	–
214.15 K	167.92	–
215.15 K	168.49	–
216.15 K	169.55	–
217.15 K	170.24	–
218.15 K	170.94	–
219.15 K	171.88	–
220 K	–	174.05
220.15 K	172.81	–
221.15 K	173.38	–
221.78 K	–	175.44
222.15 K	174.15	–
223.15 K	174.98	–
224.15 K	175.72	–
225.15 K	176.52	–
226.15 K	177.3	–
227.15 K	177.96	–
228.15 K	178.66	–
229.15 K	179.32	–
230 K	–	181.07
230.15 K	179.98	–
231.15 K	180.68	–
231.88 K	–	182.4
232.15 K	181.3	–
233.15 K	182.34	–
234.15 K	182.94	–
235.15 K	183.75	–
236.15 K	184.67	–
237.15 K	185.22	–
238.15 K	186	–
239.15 K	186.79	–
240 K	–	188.14
240.15 K	187.46	–
241.15 K	188.04	–
241.89 K	–	189.63
242.15 K	188.69	–
243.15 K	189.39	–
244.15 K	190.16	–
245.15 K	190.77	–
246.15 K	191.37	–
247.15 K	192.19	–
248.15 K	192.92	–
249.15 K	193.73	–
250 K	–	195.26
250.15 K	194.6	–
251.15 K	195.14	–
252.03 K	–	197.13
252.15 K	195.91	–
253.15 K	196.71	–
254.15 K	197.56	–
255.15 K	198.46	–
256.15 K	199.17	–
257.15 K	199.9	–
258.15 K	200.87	–
259.15 K	201.58	–
260 K	–	202.45
260.15 K	202.15	–
261.15 K	203.09	–
262.09 K	–	203.85
262.15 K	203.84	–
263.15 K	204.4	–
264.15 K	205.1	–
265.15 K	205.89	–
266.15 K	206.4	–
267.15 K	207.11	–
268.15 K	207.89	–
269.15 K	208.64	–
270 K	–	209.71
270.15 K	209.5	–
271.15 K	210.37	–
272.12 K	–	211.38
272.15 K	211.22	–
273.15 K	211.63	212.01
274.15 K	212.27	–
275.15 K	213.11	–
276.15 K	213.85	–
277.15 K	214.68	–
278.15 K	215.33	–
279.15 K	216.09	–
280 K	–	217.04
280.15 K	216.75	–
281.15 K	217.54	–
282.15 K	218.34	–
282.18 K	–	219
283.15 K	219.11	–
284.15 K	219.88	–
285.15 K	220.37	–
286.15 K	221.11	–
287.15 K	221.79	–
288.15 K	222.53	–
